Test results from paper PMC7897990, “TriTOX: A novel Trichomonas vaginalis assay platform for high-throughput screening of compound libraries” (International Journal for Parasitology: Drugs and Drug …, 2021).
Read-outs that look alike come from different tables or passages of the source.

Assays:
[1] = tested on: Trichomonas vaginalis G3 trophozoites; settings: for T.vaginalis_Absorbance_Rep1 / T.vaginalis_Absorbance_Rep2: HTS, parasite screen at 1 µg/mL; for T.vaginalis_Absorbance_Rep1: replicate 1, raw absorbance; for T.vaginalis_Absorbance_Rep2: replicate 2, raw absorbance
[2] = tested on: nontumorigenic neonatal foreskin fibroblast (NFF) cell line
[3] = tested on: Trichomonas vaginalis G3 trophozoites; experiment: microbe, parasite or virus in culture; settings: 48 h
[4] = read-out: T.vaginalis_%inb_Rep1
[5] = read-out: T.vaginalis_%inb_Rep2
[6] = NFF fibroblasts, single concentration 5 µg/mL
[7] = NFF fibroblast screen at 5 µg/mL, A = active, I = inactive

Structure (SMILES) | T.vaginalis_Absorbance_Rep1 [1] | T.vaginalis_Absorbance_Rep2 [1] | NFF_Activity ([2]; NFF_NS1 screen at 5 µg/mL) | inhibition of growth at 1 µg/mL [3, 4] [%] | inhibition of growth at 1 µg/mL [3, 5] [%] | selectivity: anti-trichomonal vs anti-tumour (NS-1) and cytotoxic (NFF) activity ([1]; single concentration screens of the same library, NS-1/NFF active if >25% inhibition) | NFF_Activity [2, 6] | NFF_Activity [2, 7]
C[C@@](O)(/C=C/[C@H]1CC=CC(=O)O1)[C@@H](C[C@@H](O)\C=C/C=C\C=C\CO)OP(=O)(O)O [Fostriecin] | 0.964 | 0.811 | I (otherwise these were reported as inactive (I)) | 13.7 | 13.8 | – | – | –
CC[C@H](C)[C@H]1C(=O)O[C@H](C(C)C)C(=O)N(C)[C@@H](C(C)C)C(=O)O[C@H](C(C)C)C(=O)N(C)[C@@H](C(C)C)C(=O)O[C@H](C(C)C)C(=O)N1C [Enniatin B1] | 0.967 | 0.828 | I (otherwise these were reported as inactive (I)) | 13.9 | 15 | – | – | –
C/C(=C\c1csc(C)n1)[C@@H]1C[C@@H]2O[C@]2(C)CCC[C@H](C)[C@H](O)[C@@H](C)C(=O)C(C)(C)[C@@H](O)CC(=O)O1 [epothilone B, reference compound] | 2.179 | 1.684 | I (otherwise these were reported as inactive (I)) | 74.9 | 67.3 | selective for T. vaginalis | – | –
CO[C@H]1C[C@@H]2CC[C@@H](C)[C@@](O)(O2)C(=O)C(=O)N2CCCC[C@H]2C(=O)O[C@H]([C@H](C)C[C@@H]2CC[C@@H](OCCO)[C@H](OC)C2)CC(=O)[C@H](C)/C=C(\C)[C@@H](O)[C@@H](OC)C(=O)[C@H](C)C[C@H](C)/C=C/C=C/C=C/1C [Everolimus] | 0.983 | 0.76 | I (otherwise these were reported as inactive (I)) | 14.8 | 10.1 | – | – | –
C/C(=C\c1csc(C)n1)[C@@H]1C[C@@H]2O[C@@H]2CCC[C@H](C)[C@H](O)[C@@H](C)C(=O)C(C)(C)[C@@H](O)CC(=O)O1 [Epothilone A] | 2.11 | 1.991 | I (otherwise these were reported as inactive (I)) | 71.4 | 87 | – | – | –
O=c1c(-c2ccc(O)cc2)coc2cc(O)cc(O)c12 [Genistein] | 1.004 | 0.828 | I (otherwise these were reported as inactive (I)) | 15.3 | 12.4 | – | – | –
Cc1cc(O)c(C=O)c2c1C(=O)Oc1c(COC(=O)/C=C/C(=O)O)c(O)c(C(=O)O)c(C)c1O2 [Fumarprotocetraric acid] | 0.953 | 0.839 | I (otherwise these were reported as inactive (I)) | 13.1 | 15.8 | – | – | –
CCCCC[C@@H](O)[C@H]1C(=O)O[C@H](C)[C@@H](O)/C=C/C=C/C=C/C=C/C=C(\C)[C@@H](O)C[C@H](O)C[C@H](O)C[C@H](O)C[C@H](O)C[C@H](O)C[C@@H]1O [Filipin III] | 1.003 | 0.794 | I (otherwise these were reported as inactive (I)) | 15.8 | 12.6 | – | – | –
CC(C)[C@H]1C(=O)O[C@H](C(C)C)C(=O)N(C)[C@@H](C(C)C)C(=O)O[C@H](C(C)C)C(=O)N(C)[C@@H](C(C)C)C(=O)O[C@H](C(C)C)C(=O)N1C [Enniatin B] | 0.992 | 0.695 | I (otherwise these were reported as inactive (I)) | 15.2 | 5.42 | – | – | –
C=CC(C)(C)c1[nH]c2c(CC=C(C)C)cc(CC=C(C)C)cc2c1C[C@@H]1NC(=O)[C@H](C)NC1=O [Echinulin] | 1.001 | 0.85 | I (otherwise these were reported as inactive (I)) | 15.7 | 16.6 | – | – | –
COc1cc(C)c(C(=O)Oc2cc(C)c(C(=O)O)c(O)c2)c(O)c1 [Evernic acid] | 0.922 | 0.775 | I (otherwise these were reported as inactive (I)) | 11.5 | 11.2 | – | – | –
CCCCc1ccc(C(=O)O)nc1 [Fusaric acid] | 0.976 | 0.881 | I (otherwise these were reported as inactive (I)) | 13.9 | 15.8 | – | – | –
C=Cc1cc(OC)c2c(c1)c(=O)oc1c2cc(OC)c2c(O)ccc([C@H]3O[C@H](C)[C@H](O)[C@H](O)[C@H]3O)c21 [Gilvocarcin V] | 0.79 | 0.706 | I (otherwise these were reported as inactive (I)) | 4.46 | 4.55 | – | – | –
CC1(C)C[C@]23[C@@H]4COC(=O)[C@H]2CC[C@H]1[C@@H]3CC4=O [Quadrone] | – | – | – | 11.6 | 11.6 | – | A (active (A) compounds having >25% inhibitory activity) | –
CC=C1CN(C)C2Cc3c([nH]c4ccccc34)C(c3cc4[nH]c5c(c4cc3OC)CCN3CC4CC(CC)C3C5(C(=O)OC)C4)CC1C2C(=O)OC (stereo not drawn) [Voacamine] | – | – | – | 9.44 | 11.1 | – | – | I (otherwise these were reported as inactive (I))
CC(C)=CCC[C@H](C)[C@H]1CC[C@]2(C)C[C@H]3[C@H](C(=O)C[C@@]3(C)O)/C(C=O)=C\C[C@@H]12 [Ophiobolin C] | – | – | – | 13.1 | 12.7 | – | A (active (A) compounds having >25% inhibitory activity) | –
C=C(C)[C@@H]1NC(=O)[C@@H](NC)[C@@H](O)c2cc(Cl)c(O)c(c2)O[C@](C)(CC)[C@@H](C(=O)N2CC=C[C@H]2C(=O)N/C(C(=O)N/C(=C/C(=O)O)C(=O)O)=C(\C)CC)NC1=O [Phomopsin A] | – | – | – | 11.7 | 11 | – | I (otherwise these were reported as inactive (I)) | –
CC[C@@H]1C=CC=CC[C@H](C)[C@@H](O)[C@@H](C)C(=O)[C@H](C)[C@@H](O)[C@H](C)C(=O)[C@H](C)[C@@H](O)[C@H](C)C=CC(=O)O[C@H]2[C@@H](C)[C@@H](CC1)O[C@@]1(CC[C@@H](C)[C@@H](C[C@H](C)O)O1)[C@@H]2C [Oligomycin C] | – | – | – | 11.3 | 12.9 | – | I (otherwise these were reported as inactive (I)) | –
C[C@H]1C(=O)N2c3ccccc3[C@@]3(O)C[C@@H]4C(=O)N[C@](C)(c5nc6ccccc6c(=O)n54)N1[C@@H]23 [Fumiquinazoline D] | 0.964 | 0.84 | I (otherwise these were reported as inactive (I)) | 13.7 | 15.9 | – | – | –
CC[C@@H]1C[C@H]2CC[C@H](O2)[C@H](C)C(=O)O[C@@H](C)C[C@@H]2CC[C@@H](O2)[C@@H](C)C(=O)O[C@H](CC)C[C@H]2CC[C@H](O2)[C@H](C)C(=O)O[C@@H](C)C[C@@H]2CC[C@@H](O2)[C@@H](C)C(=O)O1 [Dinactin] | 0.868 | 0.733 | I (otherwise these were reported as inactive (I)) | 8.56 | 8.17 | – | – | –
C=C1C[C@@]23C=CC(=O)[C@@](C)(CCC(=O)Nc4c(O)ccc(C(=O)O)c4O)[C@@H]2C[C@@H]1CC3 [Platencin] | – | – | – | 11.3 | 10.7 | – | I (otherwise these were reported as inactive (I)) | –
COc1cc(C)c(C(=O)Oc2cc(C)c(C(=O)O)c(O)c2C)c(OC)c1C [Diffractaic acid] | 0.965 | 0.79 | I (otherwise these were reported as inactive (I)) | 13.8 | 12.3 | – | – | –
CC[C@H]1OC(=O)C[C@@H](O)[C@H](C)[C@@H](O[C@@H]2O[C@H](C)[C@@H](O)[C@H](N(C)C)[C@H]2O)[C@@H](CCN2C[C@H](C)C[C@H](C)C2)C[C@@H](C)C(=O)/C=C/C(C)=C/[C@@H]1CO[C@@H]1O[C@H](C)[C@@H](O)[C@@H](OC)[C@H]1OC [Tilmicosin] | – | – | – | 2.41 | 4.94 | – | – | I (otherwise these were reported as inactive (I))
C=C(NC(=O)c1csc(-c2nc3c(cc2O)-c2nc(cs2)C(=O)NC(C(C)O)C(=O)N/C(=C\C)c2nc(cs2)C(=O)NC2CC(O)C(=O)OCc4cccc5[nH]c(c(C)c45)C(=O)SCC(NC(=O)c4csc2n4)c2nc-3cs2)n1)C(N)=O (stereo not drawn) [Nosiheptide] | – | – | – | 2.89 | 6.03 | – | I (otherwise these were reported as inactive (I)) | –
O=C1Cc2ccccc2N1 [Oxindole] | – | – | – | 12.2 | 14.4 | – | I (otherwise these were reported as inactive (I)) | –
